According to PubChem BioAssay (NCI):
Where “and” joins values, the source holds several entries; their conditions need not be identical. Identical values can stand only once.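 Five compound concentrations were applied to cells in 96-well plates for 48 hours; endpoints were derived by simple linear interpolation of the resulting dose-response curve. GI50 = concentration required for 50% inhibition of growth. TGI: total growth inhibition.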

What was measured:
Assay in all cases: DTP human tumour cell line panel, 48 h
UACC-62 melanoma = test system: UACC-62 melanoma
KM20L2 colon = test system: KM20L2 colon
786-0 renal = test system: 786-0 renal
HOP-92 NSCLC = test system: HOP-92 NSCLC
SR leukemia = test system: SR leukemia
SN12C renal = test system: SN12C renal
MDA-MB-231 breast = test system: MDA-MB-231 breast
DU-145 prostate = test system: DU-145 prostate
MCF7 breast = test system: MCF7 breast
DMS 273 small cell lung = test system: DMS 273 small cell lung

| Compound | TGI (UACC-62 melanoma) | TGI (KM20L2 colon) | TGI (786-0 renal) | TGI (HOP-92 NSCLC) | TGI (SR leukemia) | TGI (SN12C renal) | TGI (MDA-MB-231 breast) | TGI (DU-145 prostate) | TGI (MCF7 breast) | GI50 (UACC-62 melanoma) | GI50 (786-0 renal) | GI50 (MDA-MB-231 breast) | GI50 (HOP-92 NSCLC) | GI50 (SR leukemia) | GI50 (DU-145 prostate) | GI50 (SN12C renal) | GI50 (MCF7 breast) | TGI (DMS 273 small cell lung) |
| --- | --- | --- | --- | --- | --- | --- | --- | --- | --- | --- | --- | --- | --- | --- | --- | --- | --- | --- |
| O=C(N/C(=C\c1ccccc1Cl)c1nc2ccccc2[nH]1)c1ccccc1 | > 100 µM | > 100 µM | > 100 µM | 34.1 µM | 79.3 µM | 61.5 µM | – | – | – | – | – | – | – | – | – | – | – | – |
| O=Cc1c(-c2ccccc2)[nH]c2ccccc2c1=O | > 100 µM | – | > 100 µM | > 100 µM | 37.4 µM | > 100 µM | > 100 µM | > 100 µM | > 100 µM | – | – | – | – | – | – | – | – | – |
| C[C@@H](NC(=O)c1ncnc(N)c1Cl)c1ncc(C(=O)Nc2cc(C(F)(F)F)c(Cl)cn2)s1 | 8.7 µM | – | > 100 µM | 9.44 µM | 64.5 µM | > 93.7 µM | 41.5 µM | > 82.7 µM | 66.1 µM | 0.402 µM | 36.3 µM | 5.37 µM | 1.46 µM | 15.3 µM | 26.7 µM | 19.9 µM | 19.9 µM | – |
| CC(=O)OC(C)(C)/C=C/C(=O)[C@](C)(O)[C@H]1[C@H](O)C[C@@]2(C)[C@@H]3CC=C4[C@@H](C=C(O)C(=O)C4(C)C)[C@]3(C)C(=O)C[C@]12C | 1.56 µM and 0.806 µM and 1.17 µM | – | – | – | – | 3.34 µM and 1.52 µM and 0.938 µM | 3.39 µM | 0.0997 µM and 0.689 µM | 3.6 µM and 1.77 µM and 1.86 µM | – | 0.0154 µM | – | – | – | 0.0514 µM | – | – | 0.203 µM and 0.0544 µM and 0.1 µM |
| Cc1ccc(-c2nc(N3CCNCC3)c3oc(-c4ccccc4)nc3n2)cc1 | 3.19 µM | – | 3.25 µM | 3.36 µM | 3.24 µM | 3.3 µM | 3.06 µM | 3.19 µM | 3.75 µM | 1.74 µM | 1.77 µM | 1.62 µM | 1.66 µM | 1.26 µM | 1.74 µM | 1.8 µM | 1.85 µM | – |
| CCOc1ccc2c(c1)CN(Cc1ccc(Cl)cc1)CO2 | 31.2 µM | – | 30.1 µM | 36.8 µM | 63.7 µM | > 100 µM | 34.6 µM | 53.2 µM | 35.2 µM | 16.1 µM | 14.8 µM | 12.9 µM | 8.63 µM | 15.6 µM | 22.8 µM | 25.9 µM | 16.4 µM | – |
| C/C(=N\n1c(O)c(C#N)cc(C#N)c1=O)c1ccncc1 | > 100 µM | – | > 100 µM | > 100 µM | > 100 µM | > 100 µM | > 100 µM | > 100 µM | > 100 µM | > 100 µM | > 100 µM | > 100 µM | > 100 µM | > 100 µM | > 100 µM | > 100 µM | > 100 µM | – |
| O=C(Nc1ccccc1C(F)(F)F)c1ccc(NC2=C(Cl)C(=O)N(Cc3ccccc3)C2=O)cc1 | 59.2 µM | – | > 100 µM | 35.2 µM | 3.86 µM | > 100 µM | 38.4 µM | > 100 µM | > 100 µM | 18.1 µM | 33.7 µM | 12.8 µM | 11.3 µM | 1.85 µM | 34.2 µM | 18.6 µM | 7.33 µM | – |
| COc1ccc(Cn2cc3c(c2)-c2oncc2CC3)cc1OC | > 50 µM | – | > 21.2 µM | 36.3 µM | – | > 50 µM | > 14.3 µM | 0.544 µM | > 41 µM | 0.273 µM | 0.536 µM | 0.255 µM | 1.15 µM | 0.164 µM | 0.163 µM | 0.331 µM | 0.191 µM | – |
| ClCc1ccc(Cn2cnc3c(Cl)ncnc32)cc1 | 19.5 µM | – | > 20 µM | 39.9 µM | – | 20.5 µM | 20.8 µM | 25.5 µM | 55.7 µM | 9.76 µM | – | 10.4 µM | 8.48 µM | 0.0902 µM | 7.3 µM | 8.46 µM | 4.65 µM | – |
| Cc1ccc(Cl)cc1NC(=O)c1cc2ccccc2cc1O | 2.65 µM | – | 1.94 µM | 0.724 µM | 1.21 µM | 1.92 µM | 2.06 µM | > 24.7 µM | 4.88 µM | 0.308 µM | 0.507 µM | 0.377 µM | 0.222 µM | 0.217 µM | 0.479 µM | 0.265 µM | 1.35 µM | – |
| O=c1c2ccccc2nc(-c2ccccc2Cl)n1-c1nnc(C(F)(F)F)s1 | 14.4 µM | – | 11.4 µM | 3.43 µM | 24.6 µM | > 100 µM | 9.38 µM | > 100 µM | > 100 µM | 2.85 µM | 3.18 µM | 2.59 µM | 0.514 µM | 3.73 µM | 5.03 µM | 3.01 µM | 3.03 µM | – |
| Nc1cc(C(F)(F)F)c(-c2cc(N3CCOCC3)nc(N3CCOCC3)n2)cn1 | 1.99 µM and 2.92 µM | – | 9.77 µM and 8.63 µM | 1.17 µM and 0.617 µM | > 30 µM | > 100 µM | > 8.48 µM and 11.9 µM | 9.96 µM and > 33.1 µM | > 10 µM and 4.05 µM | 0.318 µM and 0.375 µM | 1.65 µM and 2.1 µM | 1.26 µM and 2.06 µM | 0.162 µM and 0.0723 µM | 0.397 µM and 0.41 µM | 1.22 µM and 1.79 µM | 1.27 µM and 1.61 µM | 0.228 µM and 0.257 µM | – |
| CN(C)Cc1ccc(C(C)(C)C)cc1-c1cc(C(C)(C)C)ccc1CN(C)C | > 100 µM | – | > 100 µM | > 100 µM | > 100 µM | > 100 µM | > 100 µM | > 100 µM | > 100 µM | – | – | – | – | – | – | – | – | – |
| O=S(=O)(c1ccccc1)N1CN2CN(C1)CN(S(=O)(=O)c1ccccc1)C2 | > 100 µM | – | > 100 µM | > 100 µM | > 100 µM | > 100 µM | > 100 µM | > 100 µM | > 100 µM | – | – | – | – | – | – | – | – | – |
| OCc1ccc(N2CCc3cc(F)ccc3C2)cc1Cl | 0.198 µM | – | 22.7 µM | 6.36 µM | 24 µM | 23.2 µM | 26.2 µM | 20.6 µM | 13.3 µM | 0.0256 µM | 8.64 µM | 12.9 µM | 0.199 µM | 3.29 µM | 6.67 µM | 10.9 µM | 0.0771 µM | – |
| O=C(Nc1cccc(-n2cc(-c3ccncc3)c(-c3ccc(O)c(Cl)c3)n2)c1)c1cc(C(F)(F)F)cc(C(F)(F)F)c1 | > 50 µM | – | 18.3 µM | 4.15 µM | 5.68 µM | > 50 µM | 2.17 µM | > 50 µM | > 50 µM | 10.6 µM | 3.93 µM | 0.889 µM | 0.822 µM | 1.43 µM | 12.6 µM | 7.04 µM | 2.17 µM | – |
| COc1ccc(-c2[nH]nc(N)c2-c2cc(OC)c3c(c2)OCO3)cc1 | > 100 µM | – | > 100 µM | 46.8 µM | 18.1 µM | > 100 µM | > 100 µM | > 100 µM | > 100 µM | 4.13 µM | 7.82 µM | 5.5 µM | 3.54 µM | 1.97 µM | 5.6 µM | 5.01 µM | 3.83 µM | – |
| CCN(CC)c1ccc(C2NC(=O)c3ccccc3N2)cc1 (centres undefined) | > 100 µM | – | > 41.2 µM | 66.5 µM | > 100 µM | > 100 µM | 7.76 µM | > 100 µM | > 100 µM | – | – | – | – | – | – | – | – | – |
| O=C(/C=C/C(Cl)(Cl)Cl)Nc1ccc(Cl)cc1 | 21.2 µM | – | 2.96 µM | 4.08 µM | 3.25 µM | 25.8 µM | 6.15 µM | 30.6 µM | 34.3 µM | – | – | – | – | – | – | – | – | – |
| COc1ccc2nc3cc([N+](=O)[O-])ccc3c(NNc3ccccc3)c2c1 | 22.8 µM and 25.1 µM | – | 40.4 µM and 44 µM | 28 µM and 47.4 µM | 61.8 µM | 71.1 µM and > 74.9 µM | 30 µM and 54.2 µM | 77.8 µM and > 100 µM | 19.6 µM and 45.4 µM | 5.93 µM | – | 5.69 µM | 11.5 µM | – | 19.7 µM | 18.9 µM | 4.34 µM | – |
| CC(=O)Nc1ccc(/C=C2\N=C(c3ccccc3)OC2=O)cc1 | > 60.1 µM | > 100 µM | > 100 µM | > 100 µM | – | > 100 µM | – | – | – | – | – | – | – | – | – | – | – | – |
| COc1cc(/C=C/C(=O)/C=C/c2cc3ccc(Cl)cc3n(Cc3ccccc3)c2=O)ccc1O | 3.71 µM | – | 3.58 µM | 5.44 µM | > 100 µM | 5.01 µM | 16.6 µM | 5.47 µM | 12.3 µM | 1.29 µM | 1.78 µM | 2.93 µM | 2.21 µM | 0.457 µM | 1.87 µM | 1.95 µM | 0.418 µM | – |
| CCN(CC)CCC(CNc1ccnc2cc(Cl)ccc12)c1ccccc1 (centres undefined) | 5.05 µM | – | 13.5 µM | 21 µM | 8.48 µM | > 100 µM | 15.8 µM | > 100 µM | 18 µM | 2.04 µM | 3.69 µM | 2.18 µM | 4.51 µM | 2.23 µM | 32.9 µM | 16.3 µM | 4.75 µM | – |
| O=CNc1ccc(S(=O)(=O)c2ccc(NC=O)cc2)cc1 | > 100 µM | – | > 100 µM | > 100 µM | > 100 µM | > 100 µM | > 100 µM | > 100 µM | > 100 µM | – | – | – | – | – | – | – | – | – |
| COc1cc(/C=C/C(=O)N2CCC=CC2=O)cc(OC)c1OC | 3.82 µM | – | 7.03 µM | 4.61 µM | > 100 µM | 7.84 µM | 10.8 µM | 18.6 µM | 13.9 µM | 1.85 µM | 2.41 µM | 3.38 µM | 2.29 µM | 1.75 µM | 4.05 µM | 2.64 µM | 2.36 µM | – |
